Data on seven molecules can be found in PubChem BioAssay (NCI).

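96-well plates; 48 h exposure; 5 concentrations. Endpoints by linear interpolation between flanking doses. Not reached: highest tested concentration assigned. At the TGI there is no net growth.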

Among the test systems are LOX IMVI melanoma; SK-MEL-2 melanoma; U251 CNS; SK-MEL-5 melanoma; NCI-H460 lung; M14 melanoma; HCT-116 colon; HL-60(TB) leukemia; HCC-2998 colon; K-562 leukemia; BT-549 breast; DU-145 prostate; TK-10 renal; CAKI-1 renal; CCRF-CEM leukemia; KM12 colon; SF-295 CNS; EKVX NSCLC; MDA-MB-435; SR leukemia.
What all share (experiment): inhibition of tumour cell growth, NCI panel, 48 h

With `CCOC(=O)/C(C[C@H]1OC(C)(C)O[C@@H]1[C@H]1COC(C)(C)O1)=N/O`, the TGI in the assay with LOX IMVI melanoma, with SK-MEL-2 melanoma, in the assay with U251 CNS, with SK-MEL-5 melanoma, in the assay with NCI-H460 lung and in the assay on M14 melanoma was greater than 100 µM each time. The TGI in the assay with HCT-116 colon, in the assay with HL-60(TB) leukemia, in the assay with HCC-2998 colon, in the assay on K-562 leukemia, in the assay with BT-549 breast and in the assay with DU-145 prostate was greater than 100 µM each time. Besides, the TGI with TK-10 renal, with CAKI-1 renal, with CCRF-CEM leukemia, with KM12 colon, with SF-295 CNS and in the assay with EKVX NSCLC was greater than 100 µM in each case. In the assay on MDA-MB-435, this molecule came in with a TGI greater than 100 µM.
With `Cn1c2ccccc2c2nc3ccccc3c(Cl)c21`, the TGI in the assay with LOX IMVI melanoma, with SK-MEL-2 melanoma, in the assay on U251 CNS, in the assay on NCI-H460 lung, in the assay with M14 melanoma and in the assay with HCT-116 colon was greater than 100 µM throughout. The TGI in the assay on HL-60(TB) leukemia, in the assay with K-562 leukemia, in the assay with SR leukemia, with BT-549 breast, with DU-145 prostate and with TK-10 renal was greater than 100 µM throughout. Also, the TGI in the assay on CAKI-1 renal, in the assay with CCRF-CEM leukemia, in the assay with KM12 colon, in the assay on SF-295 CNS and in the assay on MDA-MB-435 was greater than 100 µM throughout.
With `CC1(C)CC(=O)c2c(nc(SSc3nc4c(c(-c5ccc(Br)cc5)c3C#N)C(=O)CC(C)(C)C4)c(C#N)c2-c2ccc(Br)cc2)C1`, the TGI in the assay on LOX IMVI melanoma, in the assay on SK-MEL-2 melanoma, in the assay with U251 CNS, in the assay on SK-MEL-5 melanoma, in the assay with NCI-H460 lung and in the assay with M14 melanoma was greater than 10 µM in each case. Moreover, the TGI with HCT-116 colon, with HL-60(TB) leukemia, in the assay with HCC-2998 colon, in the assay on K-562 leukemia, in the assay with SR leukemia and with BT-549 breast was greater than 10 µM each time. For the same molecule, the TGI in the assay on DU-145 prostate, with TK-10 renal, in the assay with CAKI-1 renal, in the assay on CCRF-CEM leukemia, in the assay on KM12 colon and in the assay on SF-295 CNS was greater than 10 µM throughout. This molecule also gave a TGI with EKVX NSCLC greater than 10 µM.
Turning to `COC(=O)c1ccccc1C1CN=NC12Cc1cc(C)c(C)cc1C2=O` (stereo not drawn), the TGI in the assay with LOX IMVI melanoma is 92.7 µM; in the assay on SK-MEL-2 melanoma it was greater than 100 µM; in the assay with U251 CNS, greater than 100 µM; with SK-MEL-5 melanoma, 38.1 µM; in the assay on NCI-H460 lung, greater than 100 µM; in the assay with M14 melanoma it was greater than 100 µM. For the same molecule, the TGI in the assay on HCT-116 colon was greater than 100 µM; in the assay on HL-60(TB) leukemia, 46.9 µM; in the assay on HCC-2998 colon, greater than 100 µM; in the assay on K-562 leukemia, greater than 100 µM; in the assay with BT-549 breast it was greater than 100 µM; with DU-145 prostate, greater than 100 µM. For the same molecule, the TGI in the assay with TK-10 renal, in the assay on CAKI-1 renal, in the assay on CCRF-CEM leukemia, with KM12 colon, in the assay with SF-295 CNS and in the assay with EKVX NSCLC was greater than 100 µM in each case. Moreover, the TGI in the assay with MDA-MB-435 was greater than 100 µM.
For the molecule `CCO/C(O)=C(/C(=N)N1CCCC1)C(=O)Nc1ccc(F)cc1`, the TGI in the assay with LOX IMVI melanoma, with SK-MEL-2 melanoma, in the assay with U251 CNS, in the assay with NCI-H460 lung, in the assay with M14 melanoma and with HCT-116 colon was greater than 100 µM each time. In addition, the TGI with HL-60(TB) leukemia, with HCC-2998 colon, in the assay with K-562 leukemia, with BT-549 breast, with DU-145 prostate and in the assay on TK-10 renal was greater than 100 µM throughout. Besides, the TGI in the assay with CAKI-1 renal, in the assay with CCRF-CEM leukemia, with KM12 colon, in the assay on SF-295 CNS, with EKVX NSCLC and in the assay with MDA-MB-435 was greater than 100 µM in each case.
Consider `CC(/C=N\NC(=S)N(C)C)=N/NC(=S)N(C)C`, for which the TGI in the assay on LOX IMVI melanoma is greater than 100 µM; in the assay on SK-MEL-2 melanoma it was 70.7 µM; in the assay on U251 CNS, greater than 100 µM; in the assay with SK-MEL-5 melanoma it was 14.1 µM; in the assay with NCI-H460 lung it was greater than 100 µM; with M14 melanoma it was greater than 54.1 µM. Besides, the TGI with HCT-116 colon was 31.4 µM; in the assay on HCC-2998 colon, 75.9 µM; with K-562 leukemia, greater than 100 µM; with BT-549 breast it was greater than 47.7 µM; with DU-145 prostate it was greater than 100 µM; in the assay with TK-10 renal, greater than 100 µM. For the same molecule, the TGI in the assay with CAKI-1 renal was greater than 56.2 µM; in the assay on KM12 colon it was greater than 60.9 µM; in the assay on SF-295 CNS, greater than 100 µM; with EKVX NSCLC, greater than 100 µM; in the assay on MDA-MB-435 it was greater than 100 µM.
For the molecule `O=C1CC(c2ccc(Cl)cc2)C2(C(=O)NC(=O)NC2=O)C(c2ccc(Cl)cc2)C1` (stereo not drawn), the TGI with LOX IMVI melanoma was greater than 75 µM; with SK-MEL-2 melanoma it was 38.4 µM; with U251 CNS, greater than 75 µM; in the assay on SK-MEL-5 melanoma, 47.1 µM; with NCI-H460 lung, greater than 75 µM; in the assay on M14 melanoma, greater than 75 µM. Moreover, the TGI in the assay on HCT-116 colon, in the assay with HL-60(TB) leukemia, in the assay on HCC-2998 colon, in the assay with K-562 leukemia, in the assay on BT-549 breast and in the assay with DU-145 prostate was greater than 75 µM throughout. The TGI with TK-10 renal, with CAKI-1 renal, in the assay with CCRF-CEM leukemia, in the assay on KM12 colon, with SF-295 CNS and in the assay with EKVX NSCLC was greater than 75 µM in each case. In addition, the TGI in the assay with MDA-MB-435 stood at 43.8 µM.
